According to ChEMBL document CHEMBL4346666, “Synthesis, mitochondrial localization of fluorescent derivatives of cinnamamide as anticancer agents” (Eur J Med Chem, 2019):
Calls of active or inactive are those of the source. No cut-off for these calls is given here.

Assays:
[1] = Drug localization in mitochondria of human HL60 cells at 1 uM measured after 30 mins by […] dye-based confocal microscopy; assay type: ADME; conditions: hl-60, 0.5 h
HepG2 = assay: Cytotoxicity against human HepG2 cells assessed as cell viability at 20 uM measured after 48 hrs by MTT assay relative to control; assay type: functional; conditions: HepG2, 48 h, read-out: Activity
HL-60 [2] = assay: Induction of apoptosis in human HL60 cells assessed as late apoptotic cells or necrotic cells at 15 uM after 48 hrs by Annexin-V-FITC/propidium iodide staining based flow cytometry (reference value: 0.39%); assay type: functional
HL-60 [3] = assay: Induction of cell cycle arrest in human HL60 cells assessed as accumulation at sub G0/G1 phase at 20 uM after 48 hrs by propidium iodide staining based flow cytometry (reference value: 0%); assay type: functional
HL-60 [4] = assay: Cytotoxicity against human HL60 cells assessed as cell viability at 20 uM measured after 48 hrs by MTT assay relative to control; assay type: functional; conditions: HL-60, 48 h, read-out: Activity
HL-60 [5] = assay: Induction of ROS generation in human HL60 cells after 6 hrs by DCFH-DA probe based flow cytometry analysis; assay type: functional, cell-based
[6] = Binding affinity to cysteamine residue at 1:1 to 5:1 stoichiometric ratio of cysteamine to compound incubated for up to 1 hr by UV-Vis absorption spectrophotometric method
HL-60 [7] = assay: Induction of cell cycle arrest in human HL60 cells assessed as accumulation at G2/M phase at 20 uM after 48 hrs by propidium iodide staining based flow cytometry (reference value: 1.60%); assay type: functional
HL-60 [8] = assay: Induction of cell cycle arrest in human HL60 cells assessed as accumulation at G0/G1 phase at 10 uM after 48 hrs by propidium iodide staining based flow cytometry (reference value: 83.52%); assay type: functional
HL-60 [9] = assay: Cytotoxicity against human HL60 cells assessed as reduction in cell viability measured after 48 hrs in presence of ROS scavenger N-acetyl-L-cysteine and VE by MTT assay; assay type: functional, cell-based
HL-60 [10] = assay: Induction of cell cycle arrest in human HL60 cells assessed as accumulation at G2/M phase at 15 uM after 48 hrs by propidium iodide staining based flow cytometry (reference value: 1.60%); assay type: functional
HL-60 [11] = assay: Cytotoxicity against human HL60 cells assessed as reduction in cell viability measured after 48 hrs by MTT assay; assay type: functional, cell-based; conditions: HL-60, 48 h
HL-60 [12] = assay: Induction of apoptosis in human HL60 cells assessed as early apoptotic cells at 20 uM after 48 hrs by Annexin-V-FITC/propidium iodide staining based flow cytometry (reference value: 0.71%); assay type: functional
HL-60 [13] = assay: Induction of cell cycle arrest in human HL60 cells assessed as accumulation at G2/M phase at 10 uM after 48 hrs by propidium iodide staining based flow cytometry (reference value: 1.60%); assay type: functional
HL-60 [14] = assay: Induction of apoptosis in human HL60 cells assessed as increase in late apoptotic or necrotic cells after 48 hrs by Annexin-V-FITC/propidium iodide staining based flow cytometry relative to control; assay type: functional, cell-based
HL-60 [15] = assay: Induction of cell cycle arrest in human HL60 cells assessed as accumulation at S phase at 15 uM after 48 hrs by propidium iodide staining based flow cytometry (reference value: 14.88%); assay type: functional
HL-60 [16] = assay: Induction of apoptosis in human HL60 cells assessed as early apoptotic cells at 10 uM after 48 hrs by Annexin-V-FITC/propidium iodide staining based flow cytometry (reference value: 0.71%); assay type: functional
HL-60 [17] = assay: Induction of cell cycle arrest in human HL60 cells assessed as accumulation at sub G0/G1 phase at 15 uM after 48 hrs by propidium iodide staining based flow cytometry (reference value: 0%)l; assay type: functional
HL-60 [18] = assay: Induction of cell cycle arrest in human HL60 cells assessed as accumulation at S-phase at 20 uM after 48 hrs by propidium iodide staining-based flow cytometry (reference value: 14.88%); assay type: functional
[19] = Drug uptake in human HL60 cells by flow cytometry; assay type: ADME, cell-based; conditions: hl-60
[20] = Drug uptake in human HL60 cells at 20 uM measured after 3 hrs by spectrofluorimetric analysis relative to PBMC cells; assay type: ADME, cell-based; conditions: hl-60, 3 h
HL-60 [21] = assay: Induction of cell cycle arrest in human HL60 cells assessed as accumulation at S-phase at 10 uM after 48 hrs by propidium iodide staining based flow cytometry (reference value: 14.88%); assay type: functional
MCF7 = assay: Cytotoxicity against human MCF7 cells assessed as cell viability at 20 uM measured after 48 hrs by MTT assay relative to control; assay type: functional; conditions: MCF7, 48 h, read-out: Activity
[22] = Binding affinity to cysteamine residue assessed as hypochromic effect at 20 uM incubated for up to 1 hr by UV-Vis absorption spectrophotometric method
HL-60 [23] = assay: Induction of cell cycle arrest in human HL60 cells assessed as accumulation at G0/G1 phase at 20 uM after 48 hrs by propidium iodide staining based flow cytometry (reference value: 83.52%); assay type: functional
[24] = Binding affinity to cysteamine residue by ESI-MS analysis
HL-60 [25] = assay: Induction of mitochondrial dysfunction in human HL60 cells assessed as decrease in mitochondrial membrane potential at 20 uM measured after 48 hrs by TMRE probe-based flow cytometry relative to control; assay type: functional
HL-60 [26] = assay: Induction of mitochondrial dysfunction in human HL60 cells assessed as decrease in mitochondrial membrane potential at 10 uM measured after 48 hrs by TMRE probe-based flow cytometry relative to control; assay type: functional
[27] = Drug uptake in human HL60 cells at 20 uM measured after 0.5 hrs by spectrofluorimetric analysis relative to PBMC cells; assay type: ADME, cell-based; conditions: hl-60, 0.5 h
HL-60 [28] = assay: Induction of cell cycle arrest in human HL60 cells assessed as accumulation at G0/G1 phase at 15 uM after 48 hrs by propidium iodide staining based flow cytometry (reference value: 83.52%); assay type: functional
HeLa = assay: Cytotoxicity against human HeLa cells assessed as cell viability at 20 uM measured after 48 hrs by MTT assay relative to control; assay type: functional; conditions: read-out: Activity
HL-60 [29] = assay: Cell cycle arrest in human HL60 cells assessed as decrease in accumulation at G2/M phase after 48 hrs by propidium iodide staining based flow cytometry; assay type: functional
HL-60 [30] = assay: Induction of apoptosis in human HL60 cells assessed as early apoptotic cells at 15 uM after 48 hrs by Annexin-V-FITC/propidium iodide staining based flow cytometry (reference value: 0.71%); assay type: functional
HL-60 [31] = assay: Induction of apoptosis in human HL60 cells assessed as late apoptotic cells or necrotic cells at 20 uM after 48 hrs by Annexin-V-FITC/propidium iodide staining based flow cytometry (reference value: 0.39%); assay type: functional
[32] = Drug uptake in human HL60 cells at 20 uM measured after 1.5 hrs by spectrofluorimetric analysis relative to PBMC cells; assay type: ADME, cell-based; conditions: hl-60, 1.5 h
HL-60 [33] = assay: Cell cycle arrest in human HL60 cells assessed as decrease in accumulation at S phase after 48 hrs by propidium iodide staining based flow cytometry; assay type: functional
HL-60 [34] = assay: Induction of mitochondrial dysfunction in human HL60 cells assessed as decrease in mitochondrial membrane potential at 15 uM measured after 48 hrs by TMRE probe-based flow cytometry relative to control; assay type: functional
HL-60 [35] = assay: Induction of apoptosis in human HL60 cells assessed as late apoptotic cells or necrotic cells at 10 uM after 48 hrs by Annexin-V-FITC/propidium iodide staining based flow cytometry (reference value: 0.39%); assay type: functional
PBMC = assay: Cytotoxicity against human PBMC assessed as reduction in cell viability measured after 48 hrs by MTT assay; assay type: cell-based
HL-60 [36] = assay: Induction of cell cycle arrest in human HL60 cells assessed as accumulation at sub G0/G1 phase at 10 uM after 48 hrs by propidium iodide staining based flow cytometry (reference value: 0%); assay type: functional
[37] = Drug localization in mitochondria of human HepG2 cells at 1 uM measured after 30 mins by […] dye-based confocal microscopy; assay type: ADME; conditions: hepg2, 0.5 h

Drug uptake [1]: Active
Activity [6]: Active
Drug uptake [19]: Tde and Dose-dependent effect
fold change (FC) [20]: 8.9
Activity [22]: Active
Activity [24]: Active
fold change (FC) [27]: 4.2
fold change (FC) [32]: 4.5
Drug uptake [37]: Active
Compound: CCN(CC)c1ccc2cc(C(=O)NCCNC(=O)/C(=C/c3cc(OC)c(OC)c(OC)c3)c3ccc(OC)c(OC)c3)c(=O)oc2c1
viability at 20 µM (HepG2): 56.4%
Activity (HL-60 [2]): 38%
Activity (HL-60 [3]): 21.44%
viability at 20 µM (HL-60 [4]): 25.8%
Activity (HL-60 [5]): Dose-dependent effect
Activity (HL-60 [7]): 41.72%
Activity (HL-60 [8]): 65.71%
Activity (HL-60 [9]): inactive
Activity (HL-60 [10]): 40.42%
IC50 (HL-60 [11]): 9.1 µM
Activity (HL-60 [12]): 3.75%
Activity (HL-60 [13]): 14.35%
Activity (HL-60 [14]): Dose-dependent effect
Activity (HL-60 [15]): 35.43%
Activity (HL-60 [16]): 2.15%
Activity (HL-60 [17]): 24.1%
Activity (HL-60 [18]): 55.59%
Activity (HL-60 [21]): 19.94%
viability at 20 µM (MCF7): 66.5%
Activity (HL-60 [23]): 2.69%
fold change (FC) (HL-60 [25]): 0.29
fold change (FC) (HL-60 [26]): 0.76
Activity (HL-60 [28]): 24.15%
viability at 20 µM (HeLa): 53.8%
Activity (HL-60 [29]): Dose-dependent effect
Activity (HL-60 [30]): 6.06%
Activity (HL-60 [31]): 70.2%
Activity (HL-60 [33]): Dose-dependent effect
fold change (FC) (HL-60 [34]): 0.46
Activity (HL-60 [35]): 16.3%
IC50 (PBMC): > 50 µM
Activity (HL-60 [36]): 12.84%
